This passage reports IC50 results from patent US9265773B2, “Tetracyclic heterocycle compounds and methods of use thereof for the treatment of viral diseases” (priority 2011, dated 2016).

One assay concerns HCV replicon genotype 1a. In words: microbe, parasite or virus in culture. Type of assay: cell-based. Particulars: genotype 1a replicon cells, incubated 96 hours, NS3/4A ELISA readout.
The next assay has as its system HCV replicon genotype 1b. In words: microbe, parasite or virus in culture. Type of assay: cell-based. Particulars: genotype 1b replicon cells, incubated 96 hours, NS3/4A ELISA readout.

As to `CNC(=O)c1c(-c2ccc(F)cc2)oc2cc(N(CCC3(O)CC3)S(C)(=O)=O)c(-c3ccc4c(n3)-c3cc5c(F)cccc5n3CO4)cc12` [Compound 204], the half-maximal inhibitory concentration (IC50) worked out at 8.1 nM in the assay with HCV replicon genotype 1a (Hepatitis C virus, 96 h) and 19 nM in the assay on HCV replicon genotype 1b (Hepatitis C virus, 96 h).
Turning to `CNC(=O)c1c(-c2ccc(F)cc2)oc2cc(N(C)S(C)(=O)=O)c(-c3ccc4c(n3)-c3cc5cccc(Cl)c5n3CO4)cc12` [Compound 21], the half-inhibitory concentration (IC50) turned out to be 14 nM in the assay with HCV replicon genotype 1a (Hepatitis C virus, 96 h) and 13 nM in the assay on HCV replicon genotype 1b (Hepatitis C virus, 96 h).
Turning to `CNC(=O)c1c(-c2ccc(F)cc2)oc2cc(N(C)S(C)(=O)=O)c(-c3ccc4c(c3)-c3cc5ccccc5n3CC(F)CO4)cc12` (stereo not shown) [Compound 76, 5-(7-fluoro-7,8-dihydro-6H-benzo[2,3][1,5]oxazocino[5,4-a]indol-2-yl)-2-(4-fluorophenyl)-N-methyl-6-(N-methylmethylsulfonamido)benzofuran-3-carboxamide], the 50% inhibitory concentration (IC50) stood at 4.5 nM in the assay with HCV replicon genotype 1a (Hepatitis C virus, 96 h) and 5.8 nM with HCV replicon genotype 1b (Hepatitis C virus, 96 h).
Turning to `CNC(=O)c1c(-c2ccc(F)cc2)oc2cc(N3CCOC3=O)c(-c3ccc4c(n3)-c3cc5c(F)cccc5n3CO4)cc12` [Compound 172, 5-(11-fluoro-6H-pyrido[2′,3′:5,6][1,3]oxazino[3,4-a]indol-2-yl)-2-(4-fluorophenyl)-N-methyl-6-(2-oxooxazolidin-3-yl)benzofuran-3-carboxamide], the IC50 in the assay on HCV replicon genotype 1a (Hepatitis C virus, 96 h) came out at 2.2 nM; in the assay with HCV replicon genotype 1b (Hepatitis C virus, 96 h), 2.1 nM.
As for `CN(O)C(=O)c1c(-c2ccc(F)cc2)oc2cc(N(C)S(C)(=O)=O)c(-c3ccc4c(n3)-c3cc5c(F)cccc5n3CO4)cc12` [Compound 155], the half-inhibitory concentration (IC50) with HCV replicon genotype 1a (Hepatitis C virus, 96 h) was found to be 7 nM; in the assay on HCV replicon genotype 1b (Hepatitis C virus, 96 h) it was 17 nM.
Consider `CNC(=O)c1c(-c2ccc(F)cc2)oc2cc(N(C)S(C)(=O)=O)c(-c3ccc4c(n3)-c3cc5c(F)cccc5n3C(CO)(CO)O4)cc12` [Compound 94], for which the IC50 in the assay on HCV replicon genotype 1a (Hepatitis C virus, 96 h) was 2.3 nM; with HCV replicon genotype 1b (Hepatitis C virus, 96 h), 5.6 nM.
The matching figures for `CNC(=O)c1c(-c2ccc(F)cc2)oc2cc(N3CCCC3=O)c(-c3ccc4c(n3)-c3cc5c(F)cccc5n3CO4)cc12` [Compound 168, 5-(11-fluoro-6H-pyrido[2′,3′:5,6][1,3]oxazino[3,4-a]indol-2-yl)-2-(4-fluorophenyl)-N-methyl-6-(2-oxopyrrolidin-1-yl)benzofuran-3-carboxamide]: 3.3 nM and 2.8 nM.
On to `CNC(=O)c1c(-c2ccc(F)cc2)oc2cc(N(C)S(C)(=O)=O)c(-c3ccc4c(c3)-c3[nH]c5ccccc5c3C(C)(C)O4)cc12` [Compound 61, 5-(6,6-dimethyl-6,11-dihydrochromeno[4,3-b]indol-2-yl)-2-(4-fluorophenyl)-N-methyl-6-(N-methylmethylsulfonamido)benzofuran-3-carboxamide], for which the IC50 is 6.5 nM with HCV replicon genotype 1a (Hepatitis C virus, 96 h) and 11 nM in the assay on HCV replicon genotype 1b (Hepatitis C virus, 96 h).
Take `CNC(=O)c1c(-c2ccc(F)cc2)oc2cc(N(C)S(C)(=O)=O)c(-c3ccc4c(n3)-c3cc5c(F)cccc5n3C(C(OC)OC)O4)cc12` (stereo not shown) [Compound 93]: the IC50 in the assay on HCV replicon genotype 1a (Hepatitis C virus, 96 h) is 4.4 nM; with HCV replicon genotype 1b (Hepatitis C virus, 96 h), 6 nM.
On to `CNC(=O)c1c(-c2ccc(F)cc2)oc2cc(N(C)S(C)(=O)=O)c(-c3ccc4c(n3)-c3cc5c(F)cccc5n3C(CO)O4)cc12` (stereo not shown) [Compound 88, 5-(11-fluoro-6-(hydroxymethyl)-6H-pyrido[2′,3′:5,6][1,3]oxazino[3,4-a]indol-2-yl)-2-(4-fluorophenyl)-N-methyl-6-(N-methylmethylsulfonamido)benzofuran-3-carboxamide], for which the figures for the IC50 with HCV replicon genotype 1a and in the assay on HCV replicon genotype 1b were 2.7 nM and 2.6 nM, respectively.
For `CN(c1cc2oc(-c3ccc(F)cc3)c(C(N)=O)c2cc1-c1ccc2c(n1)-c1cc3c(F)cccc3n1CO2)S(C)(=O)=O` [Compound 154], the IC50 came out at 2.7 nM in the assay on HCV replicon genotype 1a (Hepatitis C virus, 96 h) and 2.2 nM with HCV replicon genotype 1b (Hepatitis C virus, 96 h).
Consider `CNC(=O)c1c(-c2ccc(F)cc2)oc2cc(N(C)S(C)(=O)=O)c(-c3ccc4c(n3)-c3cc5ncccc5n3CO4)cc12` [Compound 44], for which the half-inhibitory concentration (IC50) is 2.8 nM with HCV replicon genotype 1a (Hepatitis C virus, 96 h) and 2.4 nM in the assay with HCV replicon genotype 1b (Hepatitis C virus, 96 h).
Turning to `CCOC(=O)C(O)c1c2n(c3cccc(F)c13)COc1ccc(-c3cc4c(C(=O)NC)c(-c5ccc(F)cc5)oc4cc3N(C)S(C)(=O)=O)nc1-2` (stereo not shown) [Compound 206, ethyl 2-(11-fluoro-2-(2-(4-fluorophenyl)-3-(methylcarbamoyl)-6-(N-methylmethylsulfonamido)benzofuran-5-yl)-6H-pyrido[2′,3′:5,6][1,3]oxazino[3,4-a]indol-12-yl)-2-hydroxyacetate], the IC50 with HCV replicon genotype 1a (Hepatitis C virus, 96 h) was determined as 15 nM; with HCV replicon genotype 1b (Hepatitis C virus, 96 h), 23 nM.
The matching figures for `CNC(=O)c1c(-c2ccc(F)cc2)oc2cc(N(C)S(C)(=O)=O)c(-c3ccc4c(c3)-c3c(Cl)c5ccccc5n3C(C3CC3)O4)cc12` (stereo not shown) [Compound 131, 5-(12-chloro-6-cyclopropyl-6H-benzo[5,6][1,3]oxazino[3,4-a]indol-2-yl)-2-(4-fluorophenyl)-N-methyl-6-(N-methylmethylsulfonamido)benzofuran-3-carboxamide]: 79 nM and 50 nM.
For the molecule `CNC(=O)c1c(-c2ccc(F)cc2)oc2cc(N(C)S(C)(=O)=O)c(-c3cc4c(cn3)OCn3c-4nc4cccnc43)cc12` [Compound 138], the IC50 worked out at 62 nM with HCV replicon genotype 1a (Hepatitis C virus, 96 h) and 19 nM with HCV replicon genotype 1b (Hepatitis C virus, 96 h).
As for `CNC(=O)c1c(-c2ccc(F)cc2)oc2cc(N(C)S(C)(=O)=O)c(-c3ccc4c(c3)-c3cc5ccccc5n3CC(C)(O)CO4)cc12` (stereo not shown) [Compound 78, 2-(4-fluorophenyl)-5-(7-hydroxy-7-methyl-7,8-dihydro-6H-benzo[2,3][1,5]oxazocino[5,4-a]indol-2-yl)-N-methyl-6-(N-methylmethylsulfonamido)benzofuran-3-carboxamide], the concentration for half-maximal inhibition (IC50) amounted to 5.7 nM with HCV replicon genotype 1a (Hepatitis C virus, 96 h) and 3.5 nM with HCV replicon genotype 1b (Hepatitis C virus, 96 h).
In the case of `CNC(=O)c1c(-c2ccc(F)cc2)oc2cc(N(C)S(C)(=O)=O)c(-c3ncc4c(n3)-c3cc5c(F)cccc5n3CCO4)cc12` [Compound 8], the IC50 came out at 1.6 nM with HCV replicon genotype 1a (Hepatitis C virus, 96 h) and 2.1 nM in the assay with HCV replicon genotype 1b (Hepatitis C virus, 96 h).
`CNC(=O)c1c(-c2ccc(F)cc2)oc2cc(N(C)S(C)(=O)=O)c(-c3ccc4c(c3)-c3cc5ccccc5n3CO4)cc12` [Compound 10]: the IC50 in the assay with HCV replicon genotype 1a (Hepatitis C virus, 96 h) amounted to 1.6 nM; with HCV replicon genotype 1b (Hepatitis C virus, 96 h) it was 2.4 nM.
With `CNC(=O)c1c(-c2ccc(F)cc2)oc2cc(N(CC(C)O)S(C)(=O)=O)c(-c3ccc4c(n3)-c3cc5c(F)cccc5n3CO4)cc12` (stereo not shown) [Compound 202], the IC50 in the assay on HCV replicon genotype 1a (Hepatitis C virus, 96 h) was determined as 2.8 nM; in the assay on HCV replicon genotype 1b (Hepatitis C virus, 96 h), 8.8 nM.
On to `CNC(=O)c1c(-c2ccc(F)cc2F)oc2cc(N(C)S(C)(=O)=O)c(-c3ccc4c(n3)-c3cc5ccccc5n3CO4)cc12` [Compound 148], for which the 50% inhibitory concentration (IC50) in the assay on HCV replicon genotype 1a (Hepatitis C virus, 96 h) came out at 2.8 nM; in the assay on HCV replicon genotype 1b (Hepatitis C virus, 96 h), 4.6 nM.
